ChEMBL document CHEMBL1147512, “Development of subtype-selective ligands as antagonists at nicotinic receptors mediating nicotine-evoked dopamine release” (Bioorg Med Chem Lett, 2004)

Tests used:
[1] = molecular target: T1, Neuronal acetylcholine receptor subunit alpha-7 (Rattus norvegicus, UniProt Q05941); experiment: Inhibition of [3H]-MLA binding to Nicotinic acetylcholine receptor alpha7 in rat brain; format: tissue-based
[2] = molecular target: T2, Neuronal acetylcholine receptor; alpha4/beta2 (Rattus norvegicus, UniProt P09483+P12390); experiment: Inhibition of [3H]nicotine binding to Nicotinic acetylcholine receptor alpha4-beta2 in rat brain.; format: tissue-based
T2 sequence (P09483 whole entry): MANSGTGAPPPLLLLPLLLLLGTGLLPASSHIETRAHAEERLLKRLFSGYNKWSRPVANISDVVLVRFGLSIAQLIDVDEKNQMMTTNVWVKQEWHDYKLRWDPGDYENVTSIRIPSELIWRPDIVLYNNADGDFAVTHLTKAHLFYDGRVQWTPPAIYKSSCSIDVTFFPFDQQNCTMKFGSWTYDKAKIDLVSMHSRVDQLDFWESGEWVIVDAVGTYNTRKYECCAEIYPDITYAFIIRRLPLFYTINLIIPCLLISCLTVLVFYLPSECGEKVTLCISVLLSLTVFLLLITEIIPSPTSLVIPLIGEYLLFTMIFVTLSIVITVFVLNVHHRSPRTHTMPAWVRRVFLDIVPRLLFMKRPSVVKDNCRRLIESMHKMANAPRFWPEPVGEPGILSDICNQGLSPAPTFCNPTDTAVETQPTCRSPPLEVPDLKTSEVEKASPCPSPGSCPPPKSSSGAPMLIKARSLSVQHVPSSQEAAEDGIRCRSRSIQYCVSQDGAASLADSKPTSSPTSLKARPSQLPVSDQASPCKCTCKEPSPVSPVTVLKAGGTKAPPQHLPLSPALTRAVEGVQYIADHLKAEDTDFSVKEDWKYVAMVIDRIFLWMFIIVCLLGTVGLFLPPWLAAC
T2 sequence (P12390 whole entry): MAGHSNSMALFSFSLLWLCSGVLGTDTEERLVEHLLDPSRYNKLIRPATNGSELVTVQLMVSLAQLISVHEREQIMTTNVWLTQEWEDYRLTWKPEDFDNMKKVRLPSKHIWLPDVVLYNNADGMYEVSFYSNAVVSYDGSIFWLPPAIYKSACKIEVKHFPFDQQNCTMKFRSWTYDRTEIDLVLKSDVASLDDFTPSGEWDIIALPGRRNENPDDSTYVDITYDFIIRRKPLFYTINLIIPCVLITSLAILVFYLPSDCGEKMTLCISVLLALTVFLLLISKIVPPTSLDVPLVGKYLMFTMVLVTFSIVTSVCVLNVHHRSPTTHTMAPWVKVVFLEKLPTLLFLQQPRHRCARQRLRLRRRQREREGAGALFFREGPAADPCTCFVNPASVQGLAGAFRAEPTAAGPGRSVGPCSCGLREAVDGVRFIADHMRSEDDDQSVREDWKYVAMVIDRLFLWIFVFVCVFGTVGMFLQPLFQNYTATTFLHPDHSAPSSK

[3] = molecular target: T1, Neuronal acetylcholine receptor subunit alpha-7; experiment: Inhibition of [3H]-MLA binding to Nicotinic acetylcholine receptor alpha-7 in rat brain.; format: tissue-based
[4] = molecular target: T2, Neuronal acetylcholine receptor; alpha4/beta2; experiment: Inhibitory activity against nAChR mediated nicotine-evoked [3H]DA overflow using rat striatal slices; format: functional
[5] = molecular target: T2, Neuronal acetylcholine receptor; alpha4/beta2; experiment: Inhibition of [3H]nicotine binding to Nicotinic acetylcholine receptor alpha4-beta2 in rat brain; format: tissue-based
[6] = species: Rattus norvegicus; experiment: Inhibitory activity against nAChR mediated nicotine-evoked [3H]DA overflow using rat striatal slices; Not active; format: functional, organism-based

T1 sequence (Q05941 whole entry): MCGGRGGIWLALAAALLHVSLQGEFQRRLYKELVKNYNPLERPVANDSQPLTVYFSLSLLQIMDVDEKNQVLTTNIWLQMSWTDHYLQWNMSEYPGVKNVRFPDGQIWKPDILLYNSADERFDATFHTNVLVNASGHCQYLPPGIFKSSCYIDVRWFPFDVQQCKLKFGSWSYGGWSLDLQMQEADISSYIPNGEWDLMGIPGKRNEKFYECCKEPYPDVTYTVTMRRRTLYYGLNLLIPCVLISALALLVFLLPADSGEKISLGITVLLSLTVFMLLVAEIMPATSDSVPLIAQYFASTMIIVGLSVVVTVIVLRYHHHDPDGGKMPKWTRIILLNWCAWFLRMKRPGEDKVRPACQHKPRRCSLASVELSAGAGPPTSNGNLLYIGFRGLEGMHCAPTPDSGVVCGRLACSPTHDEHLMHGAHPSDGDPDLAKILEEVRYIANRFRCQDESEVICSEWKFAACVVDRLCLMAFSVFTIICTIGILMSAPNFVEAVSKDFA

SMILES | Ki [1] [nM] | Ki [2] | Ki [3] | IC50 [4] [nM] | Ki [5] [nM] | IC50 [6]
CCCCCCCC[n+]1cccc([C@@H]2CCCN2C)c1 | 12000 |  |  |  |  | 
CCCCCCCCCCCC[n+]1ccc2c(c1)[C@H]1[C@@H](CC2)CCN1C.[I-] |  | Not Active | Not Active | 220 |  | 
CCCCCCCC[n+]1ccc2c(c1)[C@H]1[C@@H](CC2)CCN1C.[I-] |  | Not Active | Not Active | 80 |  | 
CCCCCCCC[n+]1cccc2c1CC[C@@H]1CCN(C)[C@H]21.[I-] |  | Not Active | Not Active | 40 |  | 
CCCCCCCCCCC[n+]1cccc2c1CC[C@@H]1CCN(C)[C@H]21.[I-] |  | Not Active | Not Active | 40 |  | 
CCCCCCCCCC[n+]1cccc2c1CC[C@@H]1CCN(C)[C@H]21.[I-] |  | Not Active | Not Active | 30 |  | 
CCCCCCCCC[n+]1ccc2c(c1)[C@H]1[C@@H](CC2)CCN1C.[I-] |  | Not Active | Not Active | 660 |  | 
CCCCCCCCCCC[n+]1ccc2c(c1)[C@H]1[C@@H](CC2)CCN1C.[I-] |  | Not Active | Not Active | 40 |  | 
CCCCCCCCCCCC[n+]1ccccc1.[I-] |  | Not Active | Not Active | 260 |  | 
CCCCCCCCC[n+]1cccc2c1CC[C@@H]1CCN(C)[C@H]21.[I-] |  | Not Active | Not Active | 310 |  | 
c1cc[n+](CCCCCCCCCCCCCC[n+]2ccccc2)cc1 | 33000 |  |  | 1000 | 9150 | 
CN1CCC[C@H]1c1ccc[n+](CCCCCCCCCCCCCC[n+]2cccc([C@@H]3CCCN3C)c2)c1.[Br-].[Br-] |  |  | Not Active | 170 | 1950 | 
CCCCCCCCCCCCCCCCCCCC[n+]1ccccc1.[Br-] |  | Not Active | Not Active | 120 |  | 
CCCCCCCCCCCC[n+]1cccc2c1CC[C@@H]1CCN(C)[C@H]21.[I-] |  | Not Active | Not Active |  |  | Not Active
CCCCCCCCCC[n+]1ccccc1.[I-] |  |  | Not Active | 130 | 17000 | 
CCCCCCCCCCCCCCC[n+]1ccccc1.[Br-] |  |  | Not Active | 320 | 38000 | 
CCCCCCCCCCCC[n+]1cccc([C@@H]2CCCN2C)c1.[I-] |  |  | Not Active | 9 | 140 | 
CCCCCCCCCC[n+]1cccc([C@@H]2CCCN2C)c1.[I-] |  |  | Not Active |  | 90 | Not Active
CCCCCCCCCC[n+]1ccc2c(c1)[C@H]1[C@@H](CC2)CCN1C.[I-] |  | Not Active | Not Active | 580 |  | 
